Measurements from US20230348369A1 (Cytokinetics, Inc., priority 2020, published 2023).
Where two headings read alike, the source gives them in different places.

Biological target: human NAMPT (Homo sapiens, UniProt P43490)
Experiment: Human recombinant enzyme assay (NMN fluorescence biochemical assay, activation of NAMPT)
Method: Compounds described herein were assayed for their ability to stimulate the synthesis of nicotinamide mononucleotide (NMN) by the enzyme NAMPT. The human recombinant enzyme assay measures the activation of the enzyme activity by compounds using recombinant enzyme and substrates in a buffered cell-free system. The assay conditions closely mimic cellular environments. Dose responses were measured using an assay to detect the formation of nicotinamide mono-nucleotide. All experiments were performed in the 384-well format. […] Enzyme reactions were initiated with the addition of 10 μL of a solution containing the substrates. The final assay conditions were as follows: 6 nM human NAMPT, 2.5 mM ATP, 20 μM PRPP and 150 μM nicotinamide in 50 mM HEPES, pH 7.2, 1 mM DTT, 1 mM CHAPS 50 mM NaCl, 100 mM MgCl2. Following an incubation of 60 min at ambient temperature, 10 μL of 20% acetophenone in DMSO was added, followed by 10 μL of 2 M KOH and 40 μL of formic acid. The plates were read for fluorescence (Excitation/Emission=355 nm/460 nm) using an EnVision plate reader after 40 mins of incubation at ambient temperature.

[1] = Table A, human recombinant NAMPT, NMN formation, 60 min
[2] = Table A, human recombinant NAMPT, NMN formation, 60 min, read-out: EC50 Human

human NAMPT, sequence (P43490 whole entry): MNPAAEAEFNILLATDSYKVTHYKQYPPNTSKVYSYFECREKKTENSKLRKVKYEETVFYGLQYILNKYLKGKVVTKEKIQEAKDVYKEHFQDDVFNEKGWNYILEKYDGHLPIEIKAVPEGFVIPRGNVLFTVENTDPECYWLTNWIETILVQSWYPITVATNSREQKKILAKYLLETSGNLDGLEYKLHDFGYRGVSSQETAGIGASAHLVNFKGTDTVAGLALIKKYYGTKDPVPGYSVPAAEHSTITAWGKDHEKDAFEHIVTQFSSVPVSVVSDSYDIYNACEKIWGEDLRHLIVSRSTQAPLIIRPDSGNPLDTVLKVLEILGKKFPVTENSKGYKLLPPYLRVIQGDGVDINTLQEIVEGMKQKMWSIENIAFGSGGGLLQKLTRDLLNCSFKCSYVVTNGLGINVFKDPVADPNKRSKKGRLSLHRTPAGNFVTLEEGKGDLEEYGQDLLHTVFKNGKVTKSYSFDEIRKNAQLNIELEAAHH

| Structure (SMILES) | AC1.4 Human [1] | EC50 [2] | EC50 |
| --- | --- | --- | --- |
| COc1ccc(CNC(=O)NC2CC3(C2)CN(C(=O)Cc2ccccc2C)C3)cc1 [Compound 42, 1-(4-methoxybenzyl)-3-(2-(2-(o-tolyl)acetyl)-2-azaspiro[3.3]heptan-6-yl)urea] | 10.7 µM | 42.2 µM |  |
| COc1ccc(CNC(=O)NC2CC3(C2)CC(C(=O)NC2(c4ccccc4)CC2)C3)cc1 (centres unmarked) [Compound 43, 6-(3-(4-methoxybenzyl)ureido)-N-(1-phenylcyclopropyl)spiro[3.3]heptane-2-carboxamide] | 4.9 µM | 46.4 µM |  |
| COc1ccc(CNC(=O)NC2CC3(C2)CC(C(=O)N2CCCC2c2ccccc2)C3)cc1 (centres unmarked) [Compound 44, 1-(4-methoxybenzyl)-3-(6-(2-phenylpyrrolidine-1-carbonyl)spiro[3.3]heptan-2-yl)urea] | 10.1 µM | 36.5 µM |  |
| COc1ccc(CNC(=O)NC2CC3(C2)CC(C(=O)N[C@H](C)c2ccccc2)C3)cc1 (stereo partly drawn) [Compound 45, (R)-6-(3-(4-methoxybenzyl)ureido)-N-(1-phenylethyl)spiro[3.3]heptane-2-carboxamide] | 6.6 µM |  | 51.7 µM |
| COc1ccc(CNC(=O)NC2CC3(C2)CC(C(=O)N[C@H](CO)c2ccccc2)C3)cc1 (stereo partly drawn) [Compound 46, (S)-N-(2-hydroxy-1-phenylethyl)-6-(3-(4-methoxybenzyl)ureido)spiro[3.3]heptane-2-carboxamide] | 6.8 µM | 41.3 µM |  |
| COc1ccc(CNC(=O)NC2CC3(C2)CC(C(=O)N[C@@H](C)c2ccccc2)C3)cc1 (stereo partly drawn) [Compound 47, (S)-6-(3-(4-methoxybenzyl)ureido)-N-(1-phenylethyl)spiro[3.3]heptane-2-carboxamide] | 6.5 µM |  | 40.6 µM |
| COc1ccc(CNC(=O)NC2CC3(C2)CC(C(=O)N2CCC2c2ccccc2)C3)cc1 (centres unmarked) [Compound 48, 1-(4-methoxybenzyl)-3-(6-(2-phenylazetidine-1-carbonyl)spiro[3.3]heptan-2-yl)urea] | 4.7 µM | 52.1 µM |  |
| COc1ccc(CNC(=O)NC2CC3(C2)CC(C(=O)NCc2cccnc2)C3)cc1 (centres unmarked) [Compound 49, 6-(3-(4-methoxybenzyl)ureido)-N-(pyridin-3-ylmethyl)spiro[3.3]heptane-2-carboxamide] | 6.6 µM | 46.8 µM |  |
| COc1ccc(CNC(=O)NC2CC3(C2)CC(C(=O)NCc2ccncc2)C3)cc1 (centres unmarked) [Compound 50, 6-(3-(4-methoxybenzyl)ureido)-N-(pyridin-4-ylmethyl)spiro[3.3]heptane-2-carboxamide] | 17.9 µM | 32.8 µM |  |
| COc1ccc(CNC(=O)NC2CC3(C2)CC(C(=O)N(C)Cc2ccccc2)C3)cc1 (centres unmarked) [Compound 51, N-benzyl-6-(3-(4-methoxybenzyl)ureido)-N-methylspiro[3.3]heptane-2-carboxamide] | 1.5 µM | 53.1 µM |  |
| COc1ccc(CNC(=O)NC2CC3(CC(CN4CCCC4c4ccccc4)C3)C2)cc1 (centres unmarked) [Compound 52, 1-(4-methoxybenzyl)-3-(6-((2-phenylpyrrolidin-1-yl)methyl)spiro[3.3]heptan-2-yl)urea] | 4.2 µM | 43.8 µM |  |
| COc1ccc(CNC(=O)NC2CC3(C2)CC(C(=O)N(C)[C@H](C)c2ccccc2F)C3)cc1 (stereo partly drawn) [Compound 53, (R)-N-(1-(2-fluorophenyl)ethyl)-6-(3-(4-methoxybenzyl)ureido)-N-methylspiro[3.3]heptane-2-carboxamide] | 0.3 µM | 8.5 µM |  |
| COc1ccc(CNC(=O)NC2CC3(C2)CC(C(=O)NCC(C)(C)c2ccccc2C)C3)cc1 (centres unmarked) [Compound 54, 6-(3-(4-methoxybenzyl)ureido)-N-(2-methyl-2-(o-tolyl)propyl)spiro[3.3]heptane-2-carboxamide] | 1.4 µM | 29.4 µM |  |
| COc1ccc(CNC(=O)NC2CC3(C2)CC(C(=O)NCC(C)(C)c2ccccc2F)C3)cc1 (centres unmarked) [Compound 55, N-(2-(2-fluorophenyl)-2-methylpropyl)-6-(3-(4-methoxybenzyl)ureido)spiro[3.3]heptane-2-carboxamide] | 1.1 µM | 40.6 µM |  |
| COc1ccc(CNC(=O)NC2CC3(C2)CC(C(=O)NCc2ccccn2)C3)cc1 (centres unmarked) [Compound 56, 6-(3-(4-methoxybenzyl)ureido)-N-(pyridin-2-ylmethyl)spiro[3.3]heptane-2-carboxamide] | 9.0 µM | 47.7 µM |  |
| COc1ccc(CNC(=O)NC2CC3(C2)CC(C(=O)N2CCC(c4ccccc4)C2)C3)cc1 (centres unmarked) [Compound 57, 1-(4-methoxybenzyl)-3-(6-(3-phenylpyrrolidine-1-carbonyl)spiro[3.3]heptan-2-yl)urea] | 1.0 µM | 25.8 µM |  |

| Structure (SMILES) | AC1.4 Human [1] | EC50 [2] | EC50 |
| --- | --- | --- | --- |
| COc1ccc(CNC(=O)NC2CC3(C2)CC(C(=O)N2CCCC2c2ccncc2)C3)cc1 (centres unmarked) [Compound 58, 1-(4-methoxybenzyl)-3-(6-(2-(pyridin-4-yl)pyrrolidine-1-carbonyl)spiro[3.3]heptan-2-yl)urea] | 11.3 µM | 39.6 µM |  |
| COc1ccc(CNC(=O)NC2CC3(C2)CC(C(=O)N2CCC[C@@H]2c2cccnc2)C3)cc1 (stereo partly drawn) [Compound 59, (R)-1-(4-methoxybenzyl)-3-(6-(2-(pyridin-3-yl)pyrrolidine-1-carbonyl)spiro[3.3]heptan-2-yl)urea] | 11.2 µM | 40.5 µM |  |
| COc1ccc(CNC(=O)NC2CC3(C2)CC(C(=O)N(C)[C@@H](C)c2ccccc2F)C3)cc1 (stereo partly drawn) [Compound 60, (S)-N-(1-(2-fluorophenyl)ethyl)-6-(3-(4-methoxybenzyl)ureido)-N-methylspiro[3.3]heptane-2-carboxamide] | 0.3 µM | 6.1 µM |  |
| COc1ccc(CNC(=O)NC2CC3(C2)CC(C(=O)N2CC(c4ccccc4)C2)C3)cc1 (centres unmarked) [Compound 61, 1-(4-methoxybenzyl)-3-(6-(3-phenylazetidine-1-carbonyl)spiro[3.3]heptan-2-yl)urea] | 2.5 µM | 34.9 µM |  |
| COc1ccc(CNC(=O)NC2CC3(C2)CC(C(=O)N2CCN(C(=O)c4ccccc4)CC2)C3)cc1 (centres unmarked) [Compound 62, 1-(6-(4-benzoylpiperazine-1-carbonyl)spiro[3.3]heptan-2-yl)-3-(4-methoxybenzyl)urea] | 1.2 µM | 23.6 µM |  |
| COc1ccc(CNC(=O)NC2CC3(C2)CC(C(=O)N[C@H]2C[C@H](c4ccccc4)C2)C3)cc1 (some centres unmarked) [Compound 63, 6-(3-(4-methoxybenzyl)ureido)-N-((1r,3r)-3-phenylcyclobutyl)spiro[3.3]heptane-2-carboxamide] | 4.4 µM | 4.4 µM |  |
| COc1ccc(CNC(=O)NC2CC3(C2)CC(C(=O)NCC(C)(C)c2ccccc2OC)C3)cc1 (centres unmarked) [Compound 64, 6-(3-(4-methoxybenzyl)ureido)-N-(2-(2-methoxyphenyl)-2-methylpropyl)spiro[3.3]heptane-2-carboxamide] | 1.4 µM | 50.1 µM |  |
| COc1ccc(CNC(=O)NC2CC3(C2)CC(C(=O)NCC(C)(C)c2ccccn2)C3)cc1 (centres unmarked) [Compound 65, 6-(3-(4-methoxybenzyl)ureido)-N-(2-methyl-2-(pyridin-2-yl)propyl)spiro[3.3]heptane-2-carboxamide] | 2.6 µM | 50 µM |  |
| COc1ccc(CNC(=O)NC2CC3(C2)CC(C(=O)NCC(C)(C)c2cccnc2)C3)cc1 (centres unmarked) [Compound 66, 6-(3-(4-methoxybenzyl)ureido)-N-(2-methyl-2-(pyridin-3-yl)propyl)spiro[3.3]heptane-2-carboxamide] | 3.3 µM | 37.8 µM |  |
| COc1ccc(CNC(=O)NC2CC3(CC(CC(=O)N(C)Cc4ccccc4)C3)C2)cc1 (centres unmarked) [Compound 67, N-benzyl-2-(6-(3-(4-methoxybenzyl)ureido)spiro[3.3]heptan-2-yl)-N-methylacetamide] | 2.3 µM |  | 35.9 µM |
| COc1ccc(CNC(=O)NC2CC3(C2)CC(C(=O)NCc2ccccc2)C3)cc1 (centres unmarked) [Compound 68, N-benzyl-6-(3-(4-methoxybenzyl)ureido)spiro[3.3]heptane-2-carboxamide] | 5.1 µM | 45.2 µM |  |
| COc1ccc(CNC(=O)NC2CC3(C2)CC(C(=O)NCCc2ccccc2)C3)cc1 (centres unmarked) [Compound 69, 6-(3-(4-methoxybenzyl)ureido)-N-phenethylspiro[3.3]heptane-2-carboxamide] | 4.7 µM |  | 38.4 µM |
| COc1ccc(CNC(=O)NC2CC3(C2)CC(C(=O)NC(C)(C)c2ccccc2)C3)cc1 (centres unmarked) [Compound 70, 6-(3-(4-methoxybenzyl)ureido)-N-(2-phenylpropan-2-yl)spiro[3.3]heptane-2-carboxamide] | 3.9 µM |  | 38.6 µM |
| COc1ccc(CNC(=O)NC2CC3(C2)CC(C(=O)NCCc2cn[nH]c2)C3)cc1 (centres unmarked) [Compound 75, N-(2-(1H-pyrazol-4-yl)ethyl)-6-(3-(4-methoxybenzyl)ureido)spiro[3.3]heptane-2-carboxamide] | 11.5 µM | 42 µM |  |
| COc1ccc(CNC(=O)NC2CC3(C2)CC(C(=O)NCc2ccc(C#N)cc2F)C3)cc1 (centres unmarked) [Compound 77, N-(4-cyano-2-fluorobenzyl)-6-(3-(4-methoxybenzyl)ureido)spiro[3.3]heptane-2-carboxamide] | 7.2 µM | 35.1 µM |  |
